Consider one molecule from patent publication US10508092B2, “Synthesis of novel analogs of diptoindonesin G, compounds formed thereby, and pharmaceutical compositions containing them” (Wisconsin Alumni Research Foundation, priority 2016, dated 2019).

Series [1] relates to wildtype ERα. Description: ERE-Luciferase activity of wildtype ERα in T47D cells. It is filed as cell-based, human. As to conditions: co-treated with 10 nM E2, 10 μM, 24 hrs. The method, then:
FIG. 6 is a histogram depicting Dip G- and Dip G-D1-inhibited E2-dependent ERE-Luciferase activities of wildtype ERα or ERα Y537S in T47D cells. Cells were co-treated with 10 nM E2 and Dip G or Dip G-D1 (10 μM) for 24 hrs. The experiments were performed in triplicate. Data are represented as mean±SD, n=3.

Series [2] concerns the target T1, CHIP ubiquitin E3 ligase (Homo sapiens, UniProt Q9UNE7).
T1 sequence (Q9UNE7 1-303): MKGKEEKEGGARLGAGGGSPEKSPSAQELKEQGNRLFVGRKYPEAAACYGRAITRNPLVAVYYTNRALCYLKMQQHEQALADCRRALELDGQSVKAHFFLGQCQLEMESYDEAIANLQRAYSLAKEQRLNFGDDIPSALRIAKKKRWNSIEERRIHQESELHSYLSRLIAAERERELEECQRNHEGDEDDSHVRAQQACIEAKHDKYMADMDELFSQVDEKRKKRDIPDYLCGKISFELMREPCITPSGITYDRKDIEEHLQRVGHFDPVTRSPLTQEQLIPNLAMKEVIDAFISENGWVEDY
Description: Binding to CHIP ubiquitin E3 ligase.

The test system of series [3] is mouse splenic lymphocytes (T cells). As to conditions: concanavalin A induced proliferation of mouse splenic lymphocytes; cited from earlier work.
Series [4] has as its system ERαY537S mutant protein. Put plainly: ELISA of ERα protein in T47D-ERαY537S cells. It is filed as cell-based, human. As to conditions: 24 hrs, FIG. 5. The method, then:
T47D cells were treated with DMSO, Fulvestrant, Dip G and a Dip G derivative (Dip G-D1, compound 17) for 24 hrs. ERα protein amounts in cell lysate were quantified using ELISA kit (R&D systems) and normalized to standard curve using purified ERα protein. The experiments were performed in triplicate. Data are represented as mean±SD, n=3.
(T47D ERα WT is available from the American Type Culture Collection, Manassas, Va.; accession no. HTB-133. The T47D ERα Y537S cell line is described in Wardell et al 2015) “Efficacy of SERD/SERM Hybrid-CDK4/6 Inhibitor Combinations in Models of Endocrine Therapy-Resistant Breast Cancer,” Clin Cancer Res. 21(22):5121-5130. […] McCormack, P. and Sapunar, F. (2008) “Pharmacokinetic profile of the fulvestrant loading dose regimen in postmenopausal women with hormone receptor-positive advanced breast cancer,” Clinical breast cancer 8:347-351.

Series [5] addresses T2, ERα (Homo sapiens, UniProt P03372).
T2 sequence (P03372 1-595): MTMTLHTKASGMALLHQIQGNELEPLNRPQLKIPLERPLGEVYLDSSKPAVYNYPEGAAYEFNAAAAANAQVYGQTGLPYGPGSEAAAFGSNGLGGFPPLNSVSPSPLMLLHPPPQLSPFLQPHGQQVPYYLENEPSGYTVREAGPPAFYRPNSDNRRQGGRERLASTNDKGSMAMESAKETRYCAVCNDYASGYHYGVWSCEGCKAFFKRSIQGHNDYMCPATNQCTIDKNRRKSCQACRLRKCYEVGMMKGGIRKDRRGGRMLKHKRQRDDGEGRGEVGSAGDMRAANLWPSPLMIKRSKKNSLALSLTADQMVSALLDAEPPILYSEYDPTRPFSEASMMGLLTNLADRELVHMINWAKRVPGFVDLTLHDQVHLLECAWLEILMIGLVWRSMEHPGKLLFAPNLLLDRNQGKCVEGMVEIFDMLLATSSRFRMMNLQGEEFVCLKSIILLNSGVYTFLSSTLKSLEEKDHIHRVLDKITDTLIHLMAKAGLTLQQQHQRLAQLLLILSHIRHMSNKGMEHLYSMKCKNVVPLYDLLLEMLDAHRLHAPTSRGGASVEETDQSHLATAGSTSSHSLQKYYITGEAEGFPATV
Description: Direct binding to ERα.

The nature of series [6]: Toxicity observations in treated mice (AST ELISA, gross tissue, injection site). The series is classed as in vivo. As for the experimental part: Dip G was synthesized as described and formulated for the in vivo treatment. Dip G was prepared by dissolving the stock powder in 100% DMSO to a final concentration of 50 mg/ml. This stock solution was then diluted 1:5 into a 40% polyethylene glycol (PEG300)/40% normal saline (0.9% NaCl) solution to a final concentration of 20% Dip G solution. […] To determine MTD, escalating doses of Dip G dissolved in the aforementioned formulation were injected retro-orbitally or by oral gavage daily, five days out of seven to determine the MTD. […] (Data not shown.) Dip G was intra-tumorally delivered to ERα-positive T47D xenografted mice three times a week and the tumors were monitored for three weeks. […] (AST ELISAs are available commercially from several suppliers, including Abcam, Cambridge, Mass.)
Mice were monitored twice weekly for weight changes and tumor growth (measured in diameter and volume) with calipers. Following tumors reaching an appropriate size (˜5 mm in diameter, taking approximately 3 months after grafting), intra-tumoral injections were begun with vehicle containing 20 mg/kg of Dip G or control vehicle in a total volume of 50 μL split between tumors on each mammary fat pad. Three mice (6 tumors) received control injections and eight (16 tumors) received Dip G. Injections were administered 3 times per week with at least one day of rest between injections, for a total of 10-12 injections. Cohorts were sacrificed by cage individually in numerical order, beginning with the 10th injection and sacrificing one cage per injection for pharmacokinetic time points from that injection onward. In mice with very small tumors, dosing was switched from intra-tumoral to subcutaneous at later time points.
(In an ELISA, binding on a coated surface is turned into a signal by an enzyme label.)

The test system of series [7] is estrogen receptor β (ERβ). As to conditions: breast cancer, Zhao et al. 2015; cited from earlier work.

Consider `O=C1c2c(O)cc(O)cc2-c2c(-c3ccc(O)cc3)oc3cc(O)cc1c23` [Dip G, diptoindonesin G], for which the “E2-dependent ERE-Luciferase activity of wildtype ERα” value in series [1] is “inhibited”. The “binding to CHIP ubiquitin E3 ligase” value in series [2] was “binds”. Besides, the immunosuppressant activity entry in series [3] was “immunosuppressant activity”. The “degradation of ERαY537S mutant protein” value in series [4] is on record as “more effective than 100 nM fulvestrant”. Moreover, in series [5], the “direct binding to ERα” value was “does not directly bind”. In addition, in series [6] (AST ELISA assay), the liver toxicity entry was “undetectable”. Further, in series [6] (aspartate aminotransferase ELISA, treated xenograft mice), the AST activity entry is reported as “around 70 milliunits/mL”. Also, the toxicity in vivo result in series [6] (high concentrations) is “No obvious toxicity”. In series [6] (intra-tumoral injection, not observed with vehicle only), the “signs around the tumor and the site of injection” value was “subcutaneous bleeding, bruising, and discoloration”. The gross tissue damage entry in series [6] (liver, lung, kidney, brain, and heart) is reported as “no gross tissue damages were observed”. In addition, the “stability of ERβ” value in series [7] is reported as “increases the stability”.
